Experimental data reported in ChEMBL document CHEMBL1131735, “Structure-activity relationships of substituted 5H-thiazolo[3,2-a]pyrimidines as group 2 metabotropic glutamate receptor antagonists” (Bioorg Med Chem Lett, 1999).
pKi: −log10 of the molar value.

target: Metabotropic glutamate receptor 2 (Rattus norvegicus, UniProt P31421); assay: Inhibition of 1S,3R-ACPD (10 uM) -stimulated GTP gamma 35S binding on rat Metabotropic glutamate receptor 2 transfected in CHO cells; format: cell-based
Sequence (P31421 whole entry): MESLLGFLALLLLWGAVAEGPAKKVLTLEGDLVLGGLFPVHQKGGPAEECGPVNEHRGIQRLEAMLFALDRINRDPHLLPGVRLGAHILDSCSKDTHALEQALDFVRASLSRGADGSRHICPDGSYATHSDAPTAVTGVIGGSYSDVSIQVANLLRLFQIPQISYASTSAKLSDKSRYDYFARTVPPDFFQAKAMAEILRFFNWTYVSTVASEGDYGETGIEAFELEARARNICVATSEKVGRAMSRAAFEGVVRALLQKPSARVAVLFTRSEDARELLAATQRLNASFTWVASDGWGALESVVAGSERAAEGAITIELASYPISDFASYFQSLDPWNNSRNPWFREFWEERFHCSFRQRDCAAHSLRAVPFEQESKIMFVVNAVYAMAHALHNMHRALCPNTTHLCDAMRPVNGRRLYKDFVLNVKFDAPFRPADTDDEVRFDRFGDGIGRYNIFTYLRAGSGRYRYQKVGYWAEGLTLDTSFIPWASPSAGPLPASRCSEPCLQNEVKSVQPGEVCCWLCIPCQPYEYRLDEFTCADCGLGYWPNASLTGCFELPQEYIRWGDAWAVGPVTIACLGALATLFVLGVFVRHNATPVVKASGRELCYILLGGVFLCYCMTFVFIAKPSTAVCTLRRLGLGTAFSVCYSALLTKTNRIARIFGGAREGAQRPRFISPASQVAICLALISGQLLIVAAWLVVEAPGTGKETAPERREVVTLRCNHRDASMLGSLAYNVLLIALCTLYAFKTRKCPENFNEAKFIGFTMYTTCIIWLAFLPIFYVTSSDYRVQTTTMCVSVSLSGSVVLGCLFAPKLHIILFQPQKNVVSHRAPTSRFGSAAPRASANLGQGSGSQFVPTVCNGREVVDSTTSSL

pKi | SMILES
5.10 | CC1=C(C(=O)OCCN(C)C)C(c2ccccc2C)N2C=C(c3c(Cl)cccc3Cl)SC2=N1 (stereo unspecified)
5.70 | COc1cccc(C2C(C(=O)OCCN(C)C)=C(C)N=C3SC(c4c(Cl)cccc4Cl)=CN32)c1 (stereo unspecified)
5.40 | COc1ccccc1C1C(C(=O)OCCN(C)C)=C(C(C)C)N=C2SC(c3c(Cl)cccc3Cl)=CN21 (stereo unspecified)
5.62 | COc1ccccc1C1C(C(=O)OCCCN(C)C)=C(C)N=C2SC(c3c(Cl)cccc3Cl)=CN21 (stereo unspecified)
6.00 | COc1ccccc1C1C(C(=O)OCCN(C)C)=C(C)N=C2SC(c3ccc(Cl)cc3Cl)=CN21 (stereo unspecified)
5.15 | COc1ccc(C2C(C(=O)OCCN(C)C)=C(C)N=C3SC(c4c(Cl)cccc4Cl)=CN32)cc1 (stereo unspecified)
5.40 | COc1ccccc1C1C(C(=O)OCCN(C)C)=C(C)N=C2SC(c3ccc(Cl)cc3)=CN21 (stereo unspecified)
< 5.00 | COc1ccccc1C1C(C(=O)NCCN(C)C)=C(C)N=C2SC(c3c(Cl)cccc3Cl)=CN21 (stereo unspecified)
5.82 | COc1ccccc1C1C(C(=O)OCCN(C)C)=C(C)N=C2SC(c3c(Cl)cccc3Cl)=CN21 (stereo unspecified)
6.00 | CCC1=C(C(=O)OCCN(C)C)C(c2ccccc2OC)N2C=C(c3c(Cl)cccc3Cl)SC2=N1 (stereo unspecified)
5.70 | CC1=C(C(=O)OCCN(C)C)C(c2ccccc2Cl)N2C=C(c3c(Cl)cccc3Cl)SC2=N1 (stereo unspecified)
< 5.00 | COc1ccccc1C1C(C(=O)OCCN(C)C)=C(C(=O)c2ccccc2)N=C2SC(c3c(Cl)cccc3Cl)=CN21 (stereo unspecified)
5.70 | CC1=C(C(=O)OCCN(C)C)C(c2ccccc2OC(C)C)N2C=C(c3c(Cl)cccc3Cl)SC2=N1 (stereo unspecified)
5.49 | CC1=C(C(=O)OCCN(C)C)C(c2ccccc2F)N2C=C(c3c(Cl)cccc3Cl)SC2=N1 (stereo unspecified)
5.52 | CCOc1ccccc1C1C(C(=O)OCCN(C)C)=C(C)N=C2SC(c3c(Cl)cccc3Cl)=CN21 (stereo unspecified)
5.40 | CCOC(=O)C1=C(C)N=C2SC(c3c(Cl)cccc3Cl)=CN2C1c1ccccc1OC (stereo unspecified)
